Experimental data as given in US6900182B1, “Inositolphosphoglycan and ribose for treatment of ischaemia-reperfusion injury” (Sylus Pharmaceuticals Ltd., priority 1998, dated 2005).

What was measured:
rat heart preparations = test: tissue PRPP concentration of rat heart preparations in anoxic conditions; conditions: ribose added to the medium
From the text: Perhaps of greater significance was our observation of the decline in cellular PRPP in a range of tissues, including heart, in experimental diabetes (see Table 1).

[1] = system: myocardial adenine nucleotides; conditions: cited from earlier work
IPG P-type = test: extractable IPG P-type from tissues before and after insulin (PDH phosphatase assay); type: in vivo, rats; conditions: 2 minutes after injection with insulin
Description: FIGS. 4C and 4D show the steady state concentration and the effect of insulin on extractable IPG P-type from heart and other tissues from adult male rats. […] The solid columns show results in the absence of insulin, while the hatched columns show results 2 minutes after injection with insulin. 1 unit is the amount of P-type IPG causing a 50% increase in the activity of PDH phosphatase or a 50% decrease in the activity of cAMP dependent protein kinase.
Under anoxic conditions, this is difficult since the enzyme PDH kinase is activated. The action of this enzyme is to inactivate the PDH complex, which is involved in the biosynthesis of acetyl-CoA and NADH. The NADH so generated in the reperfusion period is oxidized by the electron transport chain to generate ATP. The acetyl-CoA is a substrate for the Krebs cycle in which one glucose can be oxidized to 36 ATPs via the generation of further NADH. The action of IPG-P type mediators is to activate PDH phosphatase which counteracts the PDH kinase and allows for activation of the PDH complex.

| IPG P-type activity recovered from tissue upon insulin infusion (IPG P-type; adipose tissue) | IPG P-type activity recovered from tissue upon insulin infusion (IPG P-type; brain) | IPG P-type activity recovered from tissue upon insulin infusion (IPG P-type; heart) | IPG P-type activity recovered from tissue upon insulin infusion (IPG P-type; kidney) | IPG P-type activity recovered from tissue upon insulin infusion (IPG P-type; muscle) | Molecule | tissue PRPP concentration (rat heart preparations) | restitution of myocardial adenine nucleotides ([1]; Zimmer (1980)) | global heart function ([1]; overloaded and catecholamine-stimulated heart and infarcted heart rat models, Zimmer (1996)) | normalisation of depressed heart function ([1]; rats, Zimmer (1983)) |
| --- | --- | --- | --- | --- | --- | --- | --- | --- | --- |
|  |  |  |  |  | O=C[C@H](O)[C@H](O)[C@H](O)CO [ribose] | partially restored | accelerated | improvement in global heart function | accelerated |
| decreased activity | decreased activity | decreased activity | increase in activity | increase in activity | insulin |  |  |  |  |
